According to patent US20180362485A1, “N-HYDROXYFORMAMIDE COMPOUNDS AND COMPOSITIONS COMPRISING THEM FOR USE AS BMP l, TLL1 AND/OR TLL2 INHIBITORS” (GlaxoSmithKline Intellectual Property (No. 2) Limited, priority 2015, published 2018):

Key:
[1] = system: deposition of mature collagen; assay: Cell-based inhibition assay of mature collagen deposition (immunostaining); details: Cardiac fibroblast; human cardiac fibroblasts, immunostaining of mature collagen I; read-out: pIC50, mature collagen cellular inhibition assay (converted)
Description: An adaptation of the collagen deposition assay described by Chen, C. Z. C., et al., British Journal of Pharmacology, 2009, 158, 1196-1209 is used to examine effect of compounds on procollagen I processing and collagen deposition. In the adapted assay, human cardiac fibroblasts are utilized. Processing of procollagen I is determined by a PICP ELISA assay and deposition of mature collagen is determined by immunostaining.
Human cardiac fibroblasts are cultured and maintained until passage 6 in FGM-3 media (Lonza, #CC-3132) in a 37° C. humidified incubator with 5% CO2. They are then seeded in 96-well black wall, clear bottom plates at 10,000 to 15,000 cells per well in eagle's minimum essential media (EMEM, ATCC #30-2003) containing 10% fetal bovine serum (FBS, Life Technologies #10082147), 1% Glutamax (Life Technologies #35050061) and 1% Penicillin and Streptomycin (Life Technologies #15070063). These cultures are placed in 37° C. incubator. The next day, media is removed by aspiration and cells are rinsed with phosphate buffered saline. Crowding media (also called ficoll media) is prepared by adding 112.5 mg/ml of ficoll70 and 75 mg/ml ficoll400 (GE healthcare #17-0310-10 and 17-0300-10, respectively), 100 μM ascorbic acid, 1% Glutamax and 1% Penicillin and Streptomycin to EMEM media. Test compounds (dissolved in DMSO) are diluted into crowding media and then added to the cells. Final concentration of DMSO in crowding media is less than 0.3%. Cells are treated for 24 to 48 hr in a 37° C. incubator. At the end of the treatment period, cell media are collected. The level of PICP in the media is determined by a PICP ELISA assay (Quidel #8003) following the manufacturer's protocol. Potencies of test compounds are calculated by fitting PICP levels, relative to untreated controls, to log (inhibitor) vs. response equation using Graphpad Prism software 5.0 and expressed as pIC50.
For some compounds, deposition of mature collagen is measured by immunostaining in addition to PICP levels. At the end of the treatment period, cells on culture plate are fixed with 100% methanol (prechilled to −20° C.) for 10 min. Then the cells are immunostained with mouse anti-mature collagen I antibody (1:500 dilution, Sigma#C2456), anti-mouse secondary antibody Alexa647 (1:500 dilution, Invitrogen#A21236) and Hoechst (for nuclei, 2 μg/ml, Invitrogen#H3596). Fluorescent image acquisition is done using the Operetta High Content Imaging system (Perkin Elmer). For each image field, the intensity of mature collagen staining is normalized with the number of nuclei. Normalized collagen levels are used to calculate the potency of test compounds with Graphpad Prism software, as described above.

[2] = molecular target: T1, human TLL2 (Homo sapiens, UniProt Q9Y6L7); assay: Enzyme inhibition assay for human TLL2; assay type: biochemical; details: 18 nM TLL2, 5 μM promyostatin peptide substrate; read-out: pIC50, TLL2 enzyme inhibition assay (converted)
T1 construct: amino acids 26-1015 of human TLL2 (NM_012465); made in house
T1 sequence (Q9Y6L7 150-1015): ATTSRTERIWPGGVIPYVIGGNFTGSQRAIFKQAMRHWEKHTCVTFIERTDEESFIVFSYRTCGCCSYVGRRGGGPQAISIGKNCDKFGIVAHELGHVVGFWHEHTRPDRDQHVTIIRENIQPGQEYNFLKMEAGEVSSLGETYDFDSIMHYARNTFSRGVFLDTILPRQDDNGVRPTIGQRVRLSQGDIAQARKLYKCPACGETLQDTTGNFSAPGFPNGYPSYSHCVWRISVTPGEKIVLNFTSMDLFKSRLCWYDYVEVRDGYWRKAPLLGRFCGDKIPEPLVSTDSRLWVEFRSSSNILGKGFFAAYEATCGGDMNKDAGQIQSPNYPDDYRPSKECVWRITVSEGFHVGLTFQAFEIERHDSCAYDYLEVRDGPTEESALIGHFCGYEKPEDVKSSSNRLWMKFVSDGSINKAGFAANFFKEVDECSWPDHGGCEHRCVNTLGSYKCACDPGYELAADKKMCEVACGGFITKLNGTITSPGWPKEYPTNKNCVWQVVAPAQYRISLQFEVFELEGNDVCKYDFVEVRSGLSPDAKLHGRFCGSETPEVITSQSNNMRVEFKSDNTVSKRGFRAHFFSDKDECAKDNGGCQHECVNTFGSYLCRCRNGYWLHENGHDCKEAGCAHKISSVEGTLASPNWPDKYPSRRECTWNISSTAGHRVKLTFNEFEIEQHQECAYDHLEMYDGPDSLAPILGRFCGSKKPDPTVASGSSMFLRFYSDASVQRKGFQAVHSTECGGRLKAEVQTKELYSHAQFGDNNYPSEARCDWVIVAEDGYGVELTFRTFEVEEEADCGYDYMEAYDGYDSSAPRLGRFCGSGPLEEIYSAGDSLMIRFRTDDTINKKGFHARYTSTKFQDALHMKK
From the text: Buffer components are purchased from Sigma-Aldrich (St. Louis, Mo.) or an equivalent supplier. The promyostatin peptide substrate is custom synthesized by American Peptide Company (Sunnyvale, Calif.) using the myostatin protein sequence (Uniprot accession number 014793) surrounding the cleavage site reviewed in Hopkins, D. R., et al., 2007 Matrix Biology, 26, 508-523. The procollagen peptide substrate used in the high enzyme BMP1 cleavage assay is custom synthesized by 21st Century Biochemicals (Marlboro, Mass.) using the procollagen Iα protein sequence (Uniprot accession number P02452) surrounding the cleavage site reviewed in Hopkins, D. R., et al., 2007 Matrix Biology, 26, 508-523.
The DNA sequence encoding amino acids 26-1015 of human TLL2 (NM_012465) is PCR amplified from DNA template with the human RAGE signal sequence at the N-terminus and Avi-6×His epitope tags at the C-terminus ([…]). […]
Inhibition of human TLL1 and TLL2 recombinant enzymes is measured in 10 ul endpoint assays in 384-well format using the same promyostatin peptide substrate employed in the above Enzyme Inhibition Assay for human BMP1. […] TLL1 and TLL2 reactions are quenched with 5 μl of 0.5 M EDTA and plates are read on a ViewLux (Perkin Elmer) multilabel plate reader using a 480 nm excitation filter and 540 nm emission filter. […]

Structure (SMILES): CCCCC[C@@H](C(=O)NCNC(=O)c1ccc(-c2ccccc2)o1)[C@@H](CC)N(O)C=O [WO2015/104684 Example 24, N—(((R)-2-((R)-1-(N-hydroxyformamido)propyl)heptanamido)methyl)-5-phenylfuran-2-carboxamide]
- IC50 [1]: < 1000 nM
- IC50 [2]: < 794 nM
